Laboratory results as given in patent publication US6914045B2, “Glycopeptide antibiotics” (Wyeth Holdings Corporation, priority 2001, dated 2005).

How the values were obtained:
[1] = test system: Escherichia coli; assay: in vitro antibacterial evaluation, MIC by broth dilution; assay type: cell-based; conditions: 18 hours at 35° C.
In short: (§1)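 Step 1: dilute antibiotic across 64-0.06 μg/mL in Muller-Hinton II […]. Step 2: inoculate at 5×10^5 CFU/mL.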

[2] = test system: Streptococcus sp.; assay: as above; assay type: cell-based; conditions: broth dilution, 18 hours at 35° C.
In short: as §1

[3] = test system: Enterococcus sp.; assay: as above; assay type: cell-based; conditions: broth dilution, 18 hours at 35° C.
In short: as §1

[4] = test system: Staphylococcus sp.; assay: as above; assay type: cell-based; conditions: broth dilution, 18 hours at 35° C.
In short: as §1

[5] = test system: Enterococcus faecalis (GC 6189); assay: acute lethal infection in mice; assay type: in vivo; conditions: female CD-1 mice, intraperitoneal challenge, intravenous 30 min. after infection, 7 day survival
In short: (§2)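 Mice (female CD-1, 20+/−2 gm) receive bacteria ip in broth or hog gastric mucin, then test agent iv after 30 min. Median effective dose is calculated from 7 day survival pooled across 3 tests.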

[6] = test system: Staphylococcus aureus-SMITH (GC 4543); assay: acute lethal infection in mice; assay type: in vivo; conditions: acute lethal infection, female CD-1 mice, intraperitoneal challenge, intravenous 30 min. after infection, 7 day survival
In short: as §2

CC(c1ccccc1)C1NC(=O)CNC(=O)C(CO)NC(=O)C(C(O)C2CNC(=N)N2C2OC(CO)C(O)C(O)C2O)NC(=O)C(C(O)C2CNC(=N)N2)NC(=O)C(Cc2ccc(OC3OC(CO)C(OC4OC5COC(CC6CCN(C(=O)OCc7ccccc7)CC6)OC5C(O)C4O)C(O)C3O)cc2)NC1=O (stereo not drawn) [Example 113, Cyclo[glycyl-β-methylphenylalanyl-O-[4-O-[4,6-O-[2-[1-[(phenylmethoxy)carbonyl]piperidin-4-yl]ethylidene]hexopyranosyl]hexopyranosyl]tyrosyl-3-(2-iminoimidazolidin-4-yl)seryl-3-(3-hexopyranosyl-2-iminoimidazolidin-4-yl)serylseryl]]
32 µg/mL: MIC Escherichia coli (ATCC 25922) ([1]; strain ATCC 25922) | MIC Escherichia coli (GC 4559) ([1]; strain GC 4559)
<0.06 µg/mL: MIC Streptococcus pneumoniae (ATCC 6301) ([2]; Streptococcus pneumoniae (ATCC 6301)) | MIC Streptococcus pneumoniae (GC 1894) ([2]; Streptococcus pneumoniae (GC 1894)) | MIC Streptococcus pneumoniae (GC 4565) ([2]; Streptococcus pneumoniae (GC 4565)) | MIC Streptococcus pyogenes (GC 4563) ([2]; Streptococcus pyogenes (GC 4563)) | MIC Streptococcus pneumoniae (ATCC 6301) ([2]; strain ATCC 6301) | MIC Streptococcus pneumoniae (GC 1894) ([2]; strain GC 1894) | MIC Streptococcus pyogenes (GC 4563) ([2]; strain GC 4563) | MIC Streptococcus pneumoniae (GC 4565) ([2]; strain GC 4565)
0.12 µg/mL: MIC Streptococcus agalactiae (GC 4564) ([2]; Streptococcus agalactiae (GC 4564)) | MIC Streptococcus agalactiae (GC 4564) ([2]; strain GC 4564)
2 µg/mL: MIC Enterococcus avium (GC 4558) ([3]; Enterococcus avium (GC 4558)) | MIC Enterococcus faecalis (ATCC 29212) ([3]; Enterococcus faecalis (ATCC 29212)) | MIC Enterococcus faecalis (GC 3059) ([3]; Enterococcus faecalis (GC 3059)) | MIC Enterococcus faecalis (GC 4552) ([3]; Enterococcus faecalis (GC 4552)) | MIC Enterococcus faecalis (GC 4553) ([3]; Enterococcus faecalis (GC 4553)) | MIC Enterococcus faecalis (GC 4554) ([3]; Enterococcus faecalis (GC 4554)) | MIC Enterococcus faecalis (GC 6189) ([3]; Enterococcus faecalis (GC 6189)) | MIC Enterococcus faecium (GC 2243) ([3]; Enterococcus faecium (GC 2243)) | MIC Enterococcus faecium (GC 4556) ([3]; Enterococcus faecium (GC 4556)) | MIC Enterococcus faecium (GC 4557) ([3]; Enterococcus faecium (GC 4557)) | MIC Enterococcus faecalis (ATCC 29212) ([3]; strain ATCC 29212) | MIC Enterococcus faecium (GC 2243) ([3]; strain GC 2243) | MIC Enterococcus faecalis (GC 3059) ([3]; strain GC 3059) | MIC Enterococcus faecalis (GC 4552) ([3]; strain GC 4552) | MIC Enterococcus faecalis (GC 4553) ([3]; strain GC 4553) | MIC Enterococcus faecalis (GC 4554) ([3]; strain GC 4554) | MIC Enterococcus faecium (GC 4556) ([3]; strain GC 4556) | MIC Enterococcus faecium (GC 4557) ([3]; strain GC 4557) | MIC Enterococcus avium (GC 4558) ([3]; strain GC 4558) | MIC Enterococcus faecalis (GC 6189) ([3]; strain GC 6189) | MIC Staphylococcus aureus (GC 1131) [4] | MIC Staphylococcus aureus (GC 4544) [4] | MIC Staphylococcus aureus (GC 1131) ([4]; inoculum 5×10^5 CFU/mL, strain GC 1131) | MIC Staphylococcus aureus (GC 4544) ([4]; strain GC 4544)
1.04 mg/kg: median effective dose (ED50), Enterococcus faecalis (GC 6189) [5]
0.5 µg/mL: MIC Coagulase Negative Staphylococcus (GC 4548) [4] | MIC Coagulase Negative Staphylococcus (GC 6257) [4] | MIC Coagulase Negative Staphylococcus (GC 4548) ([4]; strain GC 4548) | MIC Coagulase Negative Staphylococcus (GC 6257) ([4]; strain GC 6257)
0.26 mg/kg: median effective dose (ED50), Staphylococcus aureus-SMITH (GC 4543) [6]
1 µg/mL: MIC Escherichia coli (GC 4560) ([1]; strain GC 4560) | MIC Coagulase Negative Staphylococcus (GC 4547) [4] | MIC Coagulase Negative Staphylococcus (GC 4549) [4] | MIC Coagulase Negative Staphylococcus (GC 4551) [4] | MIC Staphylococcus aureus (ATCC 29213) [4] | MIC Staphylococcus aureus (GC 3051) [4] | MIC Staphylococcus aureus (GC 3053) [4] | MIC Staphylococcus aureus (GC 4541) [4] | MIC Staphylococcus aureus (GC 4542) [4] | MIC Staphylococcus aureus (GC 4545) [4] | MIC Staphylococcus aureus-SMITH (GC 4543) [4] | MIC Staphylococcus haemolyticus (GC 4546) [4] | MIC Staphylococcus aureus (ATCC 29213) ([4]; strain ATCC 29213) | MIC Staphylococcus aureus (GC 3051) ([4]; strain GC 3051) | MIC Staphylococcus aureus (GC 3053) ([4]; strain GC 3053) | MIC Staphylococcus aureus (GC 4541) ([4]; strain GC 4541) | MIC Staphylococcus aureus (GC 4542) ([4]; strain GC 4542) | MIC Staphylococcus aureus (GC 4545) ([4]; strain GC 4545) | MIC Staphylococcus haemolyticus (GC 4546) ([4]; strain GC 4546) | MIC Coagulase Negative Staphylococcus (GC 4547) ([4]; strain GC 4547) | MIC Coagulase Negative Staphylococcus (GC 4549) ([4]; strain GC 4549) | MIC Coagulase Negative Staphylococcus (GC 4551) ([4]; strain GC 4551) | MIC Staphylococcus aureus-SMITH (GC 4543) ([4]; strain SMITH GC 4543)
4 µg/mL: MIC Enterococcus faecalis (GC 2242) ([3]; Enterococcus faecalis (GC 2242)) | MIC Enterococcus faecalis (GC 2691) ([3]; Enterococcus faecalis (GC 2691)) | MIC Enterococcus faecalis (GC 2242) ([3]; strain GC 2242) | MIC Enterococcus faecalis (GC 2691) ([3]; strain GC 2691)
